{"source": "paper PMC7114187", "about": "(Antiviral Research, 2008)", "origin": "cited, not measured here", "tested_on": "NA^WT(WSN) with H274Y mutation", "settings": "cited from earlier work"}
{"smiles": "CCOC(=O)C1=C[C@@H](OC(CC)CC)[C@H](NC(C)=O)[C@@H](N)C1", "note": "[Oseltamivir, oseltamivir]", "values": [{"measurement": "fold increase in the IC50 by H274Y mutation", "value": 754, "unit": "fold"}]}
